# Laboratory results: ChEMBL document CHEMBL1201862, “PubChem BioAssay data set” (2004)
#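 Compound exposure: 48 hours, 5 concentrations, 96-well plates. GI50: concentration for 50% inhibition of growth.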 Active and inactive are the calls of the source. Rule as the data show it: active = GI50 up to about 1.1 µM and inactive = higher.
# What was measured:
# Experiment in all cases: inhibition of tumour cell growth, NCI panel, 48 h
# [1] = tested on: TK-10
# [2] = tested on: ACHN
# [3] = tested on: NCI-H226
# [4] = tested on: MDA-MB-231
# [5] = tested on: 786-0
# [6] = tested on: A549
# [7] = tested on: MDA-MB-435
# [8] = tested on: HOP-92
# [9] = tested on: SF-268
# [10] = tested on: UACC-62
# [11] = tested on: SF-295
# [12] = tested on: HT-29
# [13] = tested on: SR
# [14] = tested on: HCT-15
# [15] = tested on: DMS-273
# [16] = tested on: DU-145
# [17] = tested on: HOP-18
# [18] = tested on: HCC 2998
# [19] = tested on: CAKI-1
# [20] = tested on: EKVX
# [21] = tested on: NCI-H522
# [22] = tested on: NCI-H23
# [23] = tested on: DMS-114
# [24] = tested on: SF-539
# [25] = tested on: NCI-H460
# [26] = tested on: HCT-116
# [27] = tested on: OVCAR-8
# [28] = tested on: K562
# [29] = tested on: OVCAR-4
# [30] = tested on: KM-20L2
# [31] = tested on: MOLT-4
# [32] = tested on: CCRF-CEM
# [33] = tested on: RXF 631
# [34] = tested on: DLD-1
# [35] = tested on: RXF 393
# [36] = tested on: OVCAR-3
# [37] = tested on: SK-MEL-2
# [38] = tested on: HL-60
# [39] = tested on: SNB-75
# [40] = tested on: KM12
# [41] = tested on: M14
# [42] = tested on: U-251
# [43] = tested on: UO-31
# [44] = tested on: COLO 205
# [45] = tested on: SW-620
# [46] = tested on: XF498
# [47] = tested on: LXFL 529
# [48] = tested on: OVCAR-5
# [49] = tested on: T47D
# [50] = tested on: LOX IMVI
# [51] = tested on: BT-549
# [52] = tested on: SK-MEL-5
# [53] = tested on: UACC-257
# [54] = tested on: PC-3
# [55] = tested on: Malme-3M
# [56] = tested on: HOP-62
# [57] = tested on: IGROV-1
# [58] = tested on: M19-MEL
# [59] = tested on: Hs-578T
# [60] = tested on: A498
# [61] = tested on: SN12C
# [62] = tested on: SNB-19
# [63] = tested on: SK-OV-3
# [64] = tested on: SK-MEL-28
# [65] = tested on: MDA-N
# [66] = tested on: RPMI-8226
# [67] = tested on: SNB-78
# [68] = tested on: MCF7
smiles,measurement,setting,value
O=C(c1ccc(Cl)cc1)C1OC12C(=O)Nc1ccccc12 (configuration not stated),GI50,[1],20.7 µM (inactive)
same,GI50,[2],15.1 µM (inactive)
same,GI50,[3],20.3 µM (inactive)
same,GI50,[4],21 µM (inactive)
same,GI50,[5],11.7 µM (inactive)
same,GI50,[6],23.9 µM (inactive)
same,GI50,[7],16.9 µM (inactive)
same,GI50,[8],10.8 µM (inactive)
same,GI50,[9],16.8 µM (inactive)
same,GI50,[10],14.8 µM (inactive)
same,GI50,[11],18 µM (inactive)
same,GI50,[12],8.51 µM (inactive)
same,GI50,[13],731 nM (active)
same,GI50,[14],4.74 µM
same,GI50,[15],12.7 µM (inactive)
same,GI50,[16],19.1 µM (inactive)
same,GI50,[17],13.9 µM (inactive)
same,GI50,[18],19.9 µM (inactive)
same,GI50,[19],6.71 µM (inactive)
same,GI50,[20],18.1 µM (inactive)
same,GI50,[21],1.91 µM (inactive)
same,GI50,[22],15.5 µM (inactive)
same,GI50,[23],12.4 µM (inactive)
same,GI50,[24],16 µM (inactive)
same,GI50,[25],18.5 µM (inactive)
same,GI50,[26],3.61 µM (inactive)
same,GI50,[27],12.1 µM (inactive)
same,GI50,[28],658 nM (active)
same,GI50,[29],19.1 µM (inactive)
same,GI50,[30],19.4 µM (inactive)
same,GI50,[31],569 nM (active)
same,GI50,[32],388 nM (active)
same,GI50,[33],17 µM (inactive)
same,GI50,[34],2.42 µM (inactive)
same,GI50,[35],15.4 µM (inactive)
same,GI50,[36],24.6 µM (inactive)
same,GI50,[37],7.6 µM (inactive)
same,GI50,[38],349 nM (active)
same,GI50,[39],17.1 µM (inactive)
same,GI50,[40],15.6 µM (inactive)
same,GI50,[41],6.18 µM (inactive)
same,GI50,[42],17.3 µM (inactive)
same,GI50,[43],15.8 µM (inactive)
same,GI50,[44],2.86 µM (inactive)
same,GI50,[45],3.52 µM (inactive)
same,GI50,[46],12.5 µM (inactive)
same,GI50,[47],3.08 µM (inactive)
same,GI50,[48],19.2 µM (inactive)
same,GI50,[49],16.3 µM (inactive)
same,GI50,[50],1.45 µM (inactive)
same,GI50,[51],6.93 µM (inactive)
same,GI50,[52],12.1 µM (inactive)
same,GI50,[53],13.8 µM (inactive)
same,GI50,[54],25.9 µM (inactive)
same,GI50,[55],4.55 µM (inactive)
same,GI50,[56],35.1 µM (inactive)
same,GI50,[57],19.8 µM (inactive)
same,GI50,[58],10.4 µM (inactive)
same,GI50,[59],16.5 µM (inactive)
same,GI50,[60],19.7 µM (inactive)
same,GI50,[61],6.01 µM (inactive)
same,GI50,[62],40.9 µM (inactive)
same,GI50,[63],25.1 µM (inactive)
same,GI50,[64],15.2 µM (inactive)
same,GI50,[65],3.64 µM (inactive)
same,GI50,[66],2.4 µM (inactive)
same,GI50,[67],16 µM (inactive)
CCC/C(=N\NC(=S)N1CCN(c2ccccn2)CC1)c1ccccn1,GI50,[1],0.335 µM (active)
same,GI50,[2],0.0207 µM (active)
same,GI50,[3],1.06 µM (active)
same,GI50,[4],0.0311 µM (active)
same,GI50,[5],0.0251 µM (active)
same,GI50,[6],0.118 µM (active)
same,GI50,[7],0.133 µM (active)
same,GI50,[8],0.233 µM (active)
same,GI50,[9],0.236 µM (active)
same,GI50,[10],0.0036 µM (active)
same,GI50,[11],0.00979 µM (active)
same,GI50,[12],0.00137 µM (active)
same,GI50,[13],1.91 nM (active)
same,GI50,[14],0.00528 µM
same,GI50,[68],4.57 nM (active)
same,GI50,[15],0.00117 µM (active)
same,GI50,[16],1.13 µM (inactive)
same,GI50,[17],0.00887 µM (active)
same,GI50,[18],0.0594 µM (active)
same,GI50,[19],0.179 µM (active)
same,GI50,[20],0.00729 µM (active)
same,GI50,[21],0.0413 µM (active)
same,GI50,[22],0.00881 µM (active)
same,GI50,[23],< 0.001 µM (active)
same,GI50,[25],0.0362 µM (active)
same,GI50,[26],0.00122 µM (active)
same,GI50,[27],0.00314 µM (active)
same,GI50,[28],1.17 nM (active)
same,GI50,[29],0.191 µM (active)
same,GI50,[30],< 0.001 µM (active)
same,GI50,[33],0.133 µM (active)
same,GI50,[34],< 0.001 µM (active)
same,GI50,[35],0.269 µM (active)
same,GI50,[36],0.0325 µM (active)
same,GI50,[37],0.115 µM (active)
same,GI50,[38],< 1 nM (active)
same,GI50,[40],0.0146 µM (active)
same,GI50,[42],0.00312 µM (active)
same,GI50,[43],0.0702 µM (active)
same,GI50,[44],0.00508 µM (active)
same,GI50,[46],< 0.001 µM (active)
same,GI50,[47],< 0.001 µM (active)
same,GI50,[48],0.61 µM (active)
same,GI50,[49],0.00248 µM (active)
same,GI50,[50],0.0258 µM (active)
same,GI50,[51],0.0212 µM (active)
same,GI50,[52],0.0108 µM (active)
same,GI50,[53],0.00387 µM (active)
same,GI50,[54],0.0152 µM (active)
same,GI50,[55],0.0205 µM (active)
same,GI50,[56],0.141 µM (active)
same,GI50,[57],0.00234 µM (active)
same,GI50,[58],0.0366 µM (active)
same,GI50,[59],0.213 µM (active)
same,GI50,[60],0.541 µM (active)
same,GI50,[62],0.0142 µM (active)
same,GI50,[63],0.437 µM (active)
same,GI50,[64],0.367 µM (active)
same,GI50,[65],0.157 µM (active)
same,GI50,[66],0.00115 µM (active)
same,GI50,[67],0.583 µM (active)
CN(C)c1ccc2nc3c(ccc4ccccc43)[o+]c2c1,GI50,[1],17.3 µM (inactive)
same,GI50,[2],13.8 µM (inactive)
same,GI50,[3],17.7 µM (inactive)
same,GI50,[5],15.5 µM (inactive)
same,GI50,[6],18.7 µM (inactive)
same,GI50,[8],18.3 µM (inactive)
same,GI50,[9],15.8 µM (inactive)
same,GI50,[10],11.5 µM (inactive)
same,GI50,[11],15.5 µM (inactive)
same,GI50,[12],15.3 µM (inactive)
same,GI50,[13],3420 nM (inactive)
same,GI50,[14],11.8 µM
same,GI50,[15],17.9 µM (inactive)
same,GI50,[17],10.1 µM (inactive)
same,GI50,[18],17.5 µM (inactive)
same,GI50,[19],15.5 µM (inactive)
same,GI50,[20],20.9 µM (inactive)
same,GI50,[21],2.52 µM (inactive)
same,GI50,[22],14 µM (inactive)
same,GI50,[23],19.3 µM (inactive)
same,GI50,[24],18.2 µM (inactive)
same,GI50,[25],16.2 µM (inactive)
same,GI50,[26],5.97 µM (inactive)
same,GI50,[27],12.4 µM (inactive)
same,GI50,[28],2740 nM (inactive)
same,GI50,[29],12.8 µM (inactive)
same,GI50,[30],13.8 µM (inactive)
same,GI50,[31],2990 nM (inactive)
same,GI50,[32],3170 nM (inactive)
same,GI50,[33],7.91 µM (inactive)
same,GI50,[34],5.51 µM (inactive)
same,GI50,[35],13.3 µM (inactive)
same,GI50,[36],3.89 µM (inactive)
same,GI50,[37],19.6 µM (inactive)
same,GI50,[38],1950 nM (inactive)
same,GI50,[39],17.5 µM (inactive)
same,GI50,[40],15 µM (inactive)
same,GI50,[41],11 µM (inactive)
same,GI50,[42],16.1 µM (inactive)
same,GI50,[43],17.7 µM (inactive)
same,GI50,[44],16.3 µM (inactive)
same,GI50,[45],3.2 µM (inactive)
same,GI50,[46],14.4 µM (inactive)
same,GI50,[47],6.53 µM (inactive)
same,GI50,[48],21.9 µM (inactive)
same,GI50,[50],6 µM (inactive)
same,GI50,[52],13.4 µM (inactive)
same,GI50,[53],4.67 µM (inactive)
same,GI50,[55],12.9 µM (inactive)
same,GI50,[56],19 µM (inactive)
same,GI50,[57],12.3 µM (inactive)
same,GI50,[58],3.03 µM (inactive)
same,GI50,[60],17.8 µM (inactive)
same,GI50,[61],17.1 µM (inactive)
same,GI50,[62],17.7 µM (inactive)
same,GI50,[63],15.7 µM (inactive)
same,GI50,[64],14.8 µM (inactive)
same,GI50,[66],3.48 µM (inactive)
same,GI50,[67],14.6 µM (inactive)
